Data: patent publication US20110039877A1, “USE OF 3, 11B-CIS-DIHYDROTETRABENAZINE IN THE TREATMENT OF MULTIPLE SCLEROSIS AND AUTOIMMUNE MYELITIS” (Biovail Laboratories International (Barbados) S.R.L., priority 2007, published 2011)
Entries after “also recorded” stand apart in the source; their conditions may differ.

Tests used:
[1] = system: DAT and VMAT2 in brain; conditions: conscious rat brain; cited from earlier work
[2] = system: experimental autoimmune encephalomyelitis (EAE) induced with mouse spinal cord homogenate in CFA; assay: Experimental autoimmune encephalomyelitis (EAE) model of multiple sclerosis; format: in vivo, Biozzi mice; conditions: for protection against EAE (clinical disease score, weight loss): days -1 to 10, Biozzi mice; for overall effect on EAE disease: general statement, no dose given
Procedure: Groups of 10 Biozzi mice aged between 5 and 8 weeks of age were challenged in the flank with mouse spinal cord homogenate (SCH) in complete Freund's adjuvant (CFA) in order to induce EAE. Treatments were given according to the schedule below. Treatment (n=8 per group) Group A—vehicle control Group B—RU350 30 mg/kg days −1 to 10 once daily by oral gavage Group C—RU350 10 mg/kg days −1 to 10 twice daily by oral gavage Group D—Positive control drug A 20 mg/ml solution of SCH in PBS was prepared and mixed in an equal volume with CFA. The mixture was sonicated in a Branson 1200 sonicator for 15 minutes and then homogenised for three minutes. An amount of 1 mg in 100 μl was administered per mouse by subcutaneous injection at the base of tail. In addition, mice were given 200 ng pertussis toxin in 0.5 ml by intraperitoneal (ip) injection on day 0 and again 48 hours later. Mice were treated according to the outline above from day −1 to day 10. The compound of formula (Ia) (i.e. RUS350) was prepared daily by dissolving 15 mg of the compound (stored at −20° C.) in sterile distilled water to give 6 mg/ml solution. A dose of 100 μl was given by oral gavage daily to the group B mice (equivalent to 30 mg/kg per 20 g mouse). For group C mice, 1 ml of the […] stock was further diluted 1:3 in sterile distilled water, and a dose of 100 μl was given orally twice daily (equivalent to 2×10 mg/kg per 20 g mouse). Distilled water served as the vehicle control for the mice in group A. Group D mice were given a dose of 5 mg/kg dexamethasone (100 μg in 100 μl per 20 g mouse) on days 3-7 and days 10-12. Moribund animals were euthanised according to Home Office regulations and all remaining animals were euthanized at day 28 post-induction. At termination, brains and spinal cords were taken from all animals and fixed for histopathology examination. Mice were weighed prior to EAE induction (Day 0) and then daily from day 5 until termination. Clinical disease was monitored from day 5 and scored according the following system: [table]

COc1cc2c(cc1O[11CH3])CCN1C[C@@H](CC(C)C)[C@H](O)C[C@H]21 (single isomer, unassigned) [(+)-α-[^11C]dihydrotetrabenazine]
distribution of radio-labelled isomer in the brain [1]: accumulated in regions of the brain associated with higher concentrations of the neuronal membrane dopamine transporter (DAT) and the vesicular monoamine transporter (VMAT2)

COc1cc2c(cc1OC)[C@H]1C[C@H](O)[C@@H](CC(C)C)CN1CC2 (single isomer, unassigned) [compound of formula (Ia)]
protection against EAE (clinical disease score, weight loss) ([2]; 10 mg/kg twice daily by oral gavage): very high level of protection
protection against EAE (clinical disease score, weight loss) ([2]; 30 mg/kg once daily by oral gavage): moderate degree of protection
overall effect on EAE disease [2]: profound effect on the disease; also recorded: levels of protection similar to that provided by treatment with steroids
overall effect on EAE disease ([2]; listed as formula (Ia)): inhibits the development of autoimmune encephalomyelitis

COc1cc2c(cc1O[11CH3])CCN1C[C@H](CC(C)C)[C@@H](O)C[C@@H]21 [(−)-α-[^11C]dihydrotetrabenazine]
distribution of radio-labelled isomer in the brain [1]: almost uniformly distributed in the brain

C[C@@H]1C[C@H]2[C@@H]3CCC4=CC(=O)C=C[C@]4(C)[C@@]3(F)[C@@H](O)C[C@]2(C)[C@@]1(O)C(=O)CO [steroid, dexamethasone, reference compound]
inhibition of severe EAE associated with weight loss ([2]; positive control, 5 mg/kg on days 3-7 and days 10-12, Biozzi mice): markedly inhibited this effect
